Measurements: patent publication US20250353863A1, “TRICYCLIC SPIROLACTAM COMPOUNDS WITH ANTIMYCOBACTERIAL ACTIVITY” (priority 2022, published 2025)
pIC50: −log10 of the molar value. In brackets after ≈: the same amount, converted by molar mass. Like-named read-outs stand apart in the source and are kept apart here.

Legend:
[1] = biological target: purified Ndh (Mtb recombinant MBP tagged Ndh-2 enzyme, MBP-Ndh) (Mycobacterium tuberculosis (strain ATCC 25618 / H37Rv), UniProt P95160); assay: Biochemical evaluation of MBP-Ndh inhibition (NADH oxidation with menadione); conditions: for IC50: NADH 500 μM, menadione 100 μM, read-out: IC50 (μM) purified Ndh
Mtb H37Rv-WT = assay: MIC by resazurin microtiter assay (REMA) against Mtb; assay type: cell-based; conditions: Mycobacterium tuberculosis
[2] = biological target: NdhA-M. tb (recombinant MBP-NdhA) (Mycobacterium tuberculosis (strain ATCC 25618 / H37Rv), UniProt P95200); assay: Biochemical evaluation of MBP-NdhA inhibition (NADH oxidation with menadione)
M. smegmatis = assay: MIC analysis of non-Mtb mycobacteria; assay type: cell-based; conditions: Mycolicibacterium smegmatis, 48 h; 2 days incubation
BCG = assay: microbe, parasite or virus in culture; assay type: cell-based; conditions: Mycobacterium tuberculosis variant bovis BCG, read-out: MIC BCG
M. avium = assay: MIC analysis of non-Mtb mycobacteria; assay type: cell-based; conditions: Mycobacterium avium, 120 h; 5 days incubation
M. abscessus R = assay: MIC analysis of non-Mtb mycobacteria; assay type: cell-based, Mycobacterium abscessus; conditions: Mycobacteroides abscessus, 48 h; 2 days incubation
M. marinum = assay: MIC analysis of non-Mtb mycobacteria; assay type: cell-based; conditions: Mycobacterium marinum, 120 h; 5 days, 30° C., visual inspection
M. abscessus S = assay: MIC analysis of non-Mtb mycobacteria; assay type: cell-based, Mycobacterium abscessus; conditions: Mycobacteroides abscessus, 48 h; 2 days incubation
[3] = 144 h, REMA, 37° C., 6 days, read-out: MIC (μM) H37Rv-WT
[4] = 144 h, read-out: MIC (μM) H37Rv-WT
[5] = REMA, read-out: MIC M. tuberculosis

Chain of purified Ndh (Mtb recombinant MBP tagged Ndh-2 enzyme, MBP-Ndh) (P95160 whole entry, looked up): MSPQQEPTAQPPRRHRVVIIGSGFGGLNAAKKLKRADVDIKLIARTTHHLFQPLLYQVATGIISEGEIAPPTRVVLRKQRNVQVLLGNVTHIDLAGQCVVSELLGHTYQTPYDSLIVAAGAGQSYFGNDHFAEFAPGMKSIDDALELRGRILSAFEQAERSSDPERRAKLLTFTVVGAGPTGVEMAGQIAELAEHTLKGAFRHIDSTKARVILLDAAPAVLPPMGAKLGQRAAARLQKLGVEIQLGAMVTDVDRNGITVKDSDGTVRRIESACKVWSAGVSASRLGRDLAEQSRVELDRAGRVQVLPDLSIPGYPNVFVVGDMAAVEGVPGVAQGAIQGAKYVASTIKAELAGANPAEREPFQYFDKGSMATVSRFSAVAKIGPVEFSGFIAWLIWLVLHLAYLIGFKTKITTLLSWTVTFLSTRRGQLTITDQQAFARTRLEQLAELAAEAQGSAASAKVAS
Chain of NdhA-M. tb (recombinant MBP-NdhA) (P95200 whole entry, looked up): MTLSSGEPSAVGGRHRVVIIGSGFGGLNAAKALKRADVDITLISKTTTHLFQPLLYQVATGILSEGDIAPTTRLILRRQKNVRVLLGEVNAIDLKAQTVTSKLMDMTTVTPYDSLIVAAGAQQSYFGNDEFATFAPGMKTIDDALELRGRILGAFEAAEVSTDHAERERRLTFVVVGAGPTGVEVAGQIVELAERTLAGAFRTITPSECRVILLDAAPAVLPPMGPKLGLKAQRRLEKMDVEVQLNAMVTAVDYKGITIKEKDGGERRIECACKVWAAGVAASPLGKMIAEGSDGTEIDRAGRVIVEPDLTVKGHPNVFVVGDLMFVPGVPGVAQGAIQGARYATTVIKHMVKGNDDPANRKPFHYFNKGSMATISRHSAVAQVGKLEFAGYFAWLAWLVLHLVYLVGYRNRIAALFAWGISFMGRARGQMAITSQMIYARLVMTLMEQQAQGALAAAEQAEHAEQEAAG

## CC(C)[C@H]1CO[C@]23CCN(CC4CCCCC4)C[C@H]2CCC(=O)N13 [(3S,7aR,11aR)-9-(cyclohexylmethyl)-3-isopropyl-2,3,6,7,7a,8,10,11-octahydrooxazolo[2,3-j][1,6]naphthyridin-5-one]
[1]
  IC50: 0.1 to 1 µM
Mtb H37Rv-WT; [3]
  MIC: < 1 µM

## CC(C)[C@H]1CO[C@]23CCN(S(=O)(=O)c4ccc(C(F)(F)F)cc4)C[C@H]2CCC(=O)N13 [(3S,7aR,11aR)-3-isopropyl-9-[4-(trifluoromethyl)phenyl]sulfonyl-2,3,6,7,7a,8,10,11-octahydrooxazolo[2,3-j][1,6]naphthyridin-5-one]
[1]
  IC50: 0.1 to 1 µM
Mtb H37Rv-WT; [3]
  MIC: 1 to 10 µM (≈ 0.446 to 4.46 µg/mL)

## CC(C)[C@H]1CO[C@]23CCN(Cc4cccc5cccnc45)C[C@H]2CCC(=O)N13 [(3S,7aR,11aR)-3-isopropyl-9-(8-quinolylmethyl)-2,3,6,7,7a,8,10,11-octahydrooxazolo[2,3-j][1,6]naphthyridin-5-one]
[1]
  IC50: > 1 µM
Mtb H37Rv-WT; [3]
  MIC: 1 to 10 µM (≈ 0.38 to 3.8 µg/mL)

## CC(C)[C@H]1CO[C@]23CCN(Cc4ccccn4)C[C@H]2CCC(=O)N13
[1]
  pIC50: 6.00 to 7.00
Mtb H37Rv-WT; [4]
  MIC: 1 to 10 µM (≈ 0.329 to 3.29 µg/mL)

## CC(C)[C@H]1CO[C@]23CCN(Cc4ccc(Cl)c(Cl)c4)C[C@H]2CCC(=O)N13 [Example 5, (3S,7aR,11aR)-9-[(3,4-dichlorophenyl)methyl]-3-isopropyl-2,3,6,7,7a,8,10,11-octahydrooxazolo[2,3-j][1,6]naphthyridin-5-one]
[1]; read-out: IC50 Ndh-M. tb
  pIC50: > 7.00
Mtb H37Rv-WT; [5]
  MIC: < 1 µM

## CC(C)[C@H]1CO[C@]23CCN(Cc4ccc5ccccc5n4)C[C@H]2CCC(=O)N13 [(3S,7aR,11aR)-3-isopropyl-9-(2-quinolylmethyl)-2,3,6,7,7a,8,10,11-octahydrooxazolo[2,3-j][1,6]naphthyridin-5-one]
[1]
  IC50: 0.1 to 1 µM
Mtb H37Rv-WT; [3]
  MIC: < 1 µM

## CC(C)[C@H]1CO[C@]23CCN(CCc4ccc(C(F)(F)F)cc4)C[C@H]2CCC(=O)N13
[1]
  IC50: 0.1 to 1 µM
Mtb H37Rv-WT; [3]
  MIC: < 1 µM

## CC(C)[C@H]1CO[C@]23CCN(Cc4ccccc4)C[C@H]2CCC(=S)N13 [(3S,7aR,11aR)-9-benzyl-3-isopropyl-2,3,6,7,7a,8,10,11-octahydrooxazolo[2,3-j][1,6]naphthyridine-5-thione]
[1]
  IC50: 0.1 to 1 µM
Mtb H37Rv-WT; [3]
  MIC: 1 to 10 µM (≈ 0.345 to 3.45 µg/mL)

## CC(C)[C@H]1CS[C@]23CCN(Cc4ccccc4)C[C@H]2CCC(=O)N13 [(3S,7aR,11aR)-9-benzyl-3-isopropyl-2,3,6,7,7a,8,10,11-octahydrothiazolo[2,3-j][1,6]naphthyridin-5-one]
[1]
  IC50: > 1 µM

## CC(C)[C@H]1CO[C@]23CCN(Cc4ccc(Cl)cc4)C[C@H]2CCC(=O)N13 [Example 4, (3S,7aR,11aR)-9-[(4-chlorophenyl)methyl]-3-isopropyl-2,3,6,7,7a,8,10,11-octahydrooxazolo[2,3-j][1,6]naphthyridin-5-one]
[1]; read-out: IC50 Ndh-M. tb
  pIC50: > 7.00
[2]
  pIC50: > 7.00
Mtb H37Rv-WT; [5]
  MIC: < 1 µM

## CC(C)[C@H]1CO[C@]23CCN(Cc4cc5ccccc5n4C)C[C@H]2CCC(=O)N13 [Example 28, (3S,7aR,11aR)-3-isopropyl-9-[(1-methylindol-2-yl)methyl]-2,3,6,7,7a,8,10,11-ocathydrooxazolo[2,3-j][1,6]naphthyridin-5-one]
[1]; read-out: IC50 Ndh-M. tb
  pIC50: > 7.00
M. smegmatis
  MIC: < 1 µM
Mtb H37Rv-WT; [5]
  MIC: < 1 µM

## CC(C)(C)[C@H]1CO[C@]23CCN(Cc4ccccc4)C[C@H]2CCC(=O)N13 [(3S,7aR,11aR)-9-benzyl-3-tert-butyl-2,3,6,7,7a,8,10,11-octahydrooxazolo[2,3-j][1,6]naphthyridin-5-one]
[1]
  IC50: > 1 µM
Mtb H37Rv-WT; [3]
  MIC: > 10 µM

## CC(C)[C@H]1CO[C@]23CCN(CCc4ccccc4)C[C@H]2CCC(=O)N13 [(3S,7aR,11aR)-3-isopropyl-9-(2-phenylethyl)-2,3,6,7,7a,8,10,11-octahydrooxazolo[2,3-j][1,6]naphthyridin-5-one]
[1]
  IC50: 0.1 to 1 µM
Mtb H37Rv-WT; [3]
  MIC: 1 to 10 µM (≈ 0.342 to 3.42 µg/mL)

## CC(C)[C@H]1CO[C@]23CCN(Cc4ccc(Cl)c(C(F)(F)F)c4)C[C@H]2CCC(=O)N13 [Example 9, (3S,7aR,11aR)-9-[[4-chloro-3-(trifluoromethyl)phenyl]methyl]-3-isopropyl-2,3,6,7,7a,8,10,11-octahydrooxazolo[2,3-j][1,6]naphthyridin-5-one]
BCG
  MIC: 1 to 10 µM (≈ 0.431 to 4.31 µg/mL)
M. avium
  MIC: < 1 µM
M. abscessus R
  MIC: 1 to 10 µM (≈ 0.431 to 4.31 µg/mL)
[1]; read-out: IC50 Ndh-M. tb
  pIC50: > 7.00
M. marinum
  MIC: < 1 µM
M. smegmatis
  MIC: 1 to 10 µM (≈ 0.431 to 4.31 µg/mL)
M. abscessus S
  MIC: 1 to 10 µM (≈ 0.431 to 4.31 µg/mL)
Mtb H37Rv-WT; [5]
  MIC: < 1 µM

## CC(C)[C@H]1CO[C@]23CCN(Cc4ccc(C(F)(F)F)cn4)C[C@H]2CCC(=O)N13 [(3S,7aR,11aR)-3-isopropyl-9-[[5-(trifluoromethyl)-2-pyridyl]methyl]-2,3,6,7,7a,8,10,11-octahydrooxazolo[2,3-j][1,6]naphthyridin-5-one]
[1]
  IC50: 0.1 to 1 µM
Mtb H37Rv-WT; [3]
  MIC: < 1 µM

## CC(C)[C@H]1CO[C@]23CCN(Cc4cccnc4)C[C@H]2CCC(=O)N13 [(3S,7aR,11aR)-3-isopropyl-9-(3-pyridylmethyl)-2,3,6,7,7a,8,10,11-octahydrooxazolo[2,3-j][1,6]naphthyridin-5-one]
[1]
  IC50: > 1 µM
Mtb H37Rv-WT; [4]
  MIC: 1 to 10 µM (≈ 0.329 to 3.29 µg/mL)

## CC(C)[C@H]1CO[C@]23CCN(Cc4ccc(C(F)(F)F)cc4)C[C@H]2CCC(=O)N13 [Example 2, (3S,7aR,11aR)-3-isopropyl-9-[[4-(trifluoromethyl)phenyl]methyl]-2,3,6,7,7a,8,10,11-octahydrooxazolo[2,3-j][1,6]naphthyridin-5-one]
BCG
  MIC: 1 to 10 µM (≈ 0.396 to 3.96 µg/mL)
M. avium
  MIC: < 1 µM
M. abscessus R
  MIC: 1 to 10 µM (≈ 0.396 to 3.96 µg/mL)
[2]
  pIC50: > 7.00
M. marinum
  MIC: < 1 µM
M. smegmatis
  MIC: 1 to 10 µM (≈ 0.396 to 3.96 µg/mL)
M. abscessus S
  MIC: 1 to 10 µM (≈ 0.396 to 3.96 µg/mL)
Mtb H37Rv-WT; [5]
  MIC: < 1 µM

## CC(C)[C@H]1CO[C@]23CCN(Cc4ccc(OC(F)(F)F)cc4)C[C@H]2CCC(=O)N13 [Example 3, (3S,7aR,11aR)-3-isopropyl-9-[[4-(trifluoromethoxy)phenyl]methyl]-2,3,6,7,7a,8,10,11-octahyooxazolo[2,3-j][1,6]naphthyridin-5-one]
BCG
  MIC: 1 to 10 µM (≈ 0.412 to 4.12 µg/mL)
M. avium
  MIC: < 1 µM
M. abscessus R
  MIC: 1 to 10 µM (≈ 0.412 to 4.12 µg/mL)
[2]
  pIC50: > 7.00
M. marinum
  MIC: < 1 µM
M. smegmatis
  MIC: 1 to 10 µM (≈ 0.412 to 4.12 µg/mL)
M. abscessus S
  MIC: 1 to 10 µM (≈ 0.412 to 4.12 µg/mL)
Mtb H37Rv-WT; [5]
  MIC: < 1 µM

## COc1ccc(CN2CC[C@]34OC[C@H](C(C)C)N3C(=O)CC[C@@H]4C2)cc1 [(3S,7aR,11aR)-3-isopropyl-9-[(4-methoxyphenyl)methyl]-2,3,6,7,7a,8,10,11-octahydrooxazolo[2,3-j][1,6]naphthyridin-5-one]
[1]
  IC50: 0.1 to 1 µM
Mtb H37Rv-WT; [3]
  MIC: 1 to 10 µM (≈ 0.358 to 3.58 µg/mL)

## CC(C)[C@H]1CO[C@]23CCN(C(=O)OCc4ccccc4)C[C@H]2CCC(=O)N13 [benzyl (3S,7aR,11aR)-3-isopropyl-5-oxo-2,3,6,7,7a,8,10,11-octahydrooxazolo[2,3-j][1,6]naphthyridine-9-carboxylate]
[1]
  IC50: 0.1 to 1 µM
Mtb H37Rv-WT; [3]
  MIC: 1 to 10 µM (≈ 0.372 to 3.72 µg/mL)

## CC(C)[C@H]1CO[C@]23CCN(C(=O)Cc4ccccc4)C[C@H]2CCC(=O)N13 [(3S,7aR,11aR)-3-isopropyl-9-(2-phenylacetyl)-2,3,6,7,7a,8,10,11-octahydrooxazolo[2,3-j][1,6]naphthyridin-5-one]
[1]
  IC50: > 1 µM
Mtb H37Rv-WT; [3]
  MIC: > 10 µM

## CC(C)[C@H]1CO[C@]23CCN(c4ccccc4)C[C@H]2CCC(=O)N13 [(3S,7aR,11aR)-3-isopropyl-9-phenyl-2,3,6,7,7a,8,10,11-octahydrooxazolo[2,3-j][1,6]naphthyridin-5-one]
[1]
  IC50: 0.1 to 1 µM
Mtb H37Rv-WT; [3]
  MIC: 1 to 10 µM (≈ 0.314 to 3.14 µg/mL)

## CC(C)[C@H]1CO[C@]23CCN(Cc4ccc(C(F)(F)F)nc4)C[C@H]2CCC(=O)N13 [(3S,7aR,11aR)-3-isopropyl-9-[[6-(trifluoromethyl)-3-pyridyl]methyl]-2,3,6,7,7a,8,10,11-octahydrooxazolo[2,3-j][1,6]naphthyridin-5-one]
[1]
  IC50: < 0.1 µM
Mtb H37Rv-WT; [3]
  MIC: < 1 µM
